Assay results as given in US4568490A, “Aminopropylaminobleomycin derivatives and process for preparation thereof” (Zaidan Hojin Biseibutsu Kagaku Kenkyu Kai, priority 1981, dated 1986).

How the values were obtained:
[1] = tested on: Mycobacterium smegmatis ATCC 607; assay: Antimicrobial activity, agar plate-cylinder method; assay type: cell-based; settings: Cu-free form; bleomycin A2 (Cu-free form) standard assumed 1,000 mcg/mg
Experimental: (§1) The activity was assayed against the above test microorganisms by the method of agar plate-cylinder, assuming the potency of bleomycin A2 (Cu-free form), used as standard, to be 1,000 mcg/mg.

Bacillus subtilis = assay: Antimicrobial activity, agar plate-cylinder method; assay type: cell-based; settings: Cu-free form; bleomycin A2 (Cu-free form) standard assumed 1,000 mcg/mg
Experimental: (1) Antimicrobial activity against Mycobacterium smegmatis ATCC 697 and Bacillus subtilis.
as §1

Hela S3 cells [2] = assay: Growth inhibitory activity against Hela S3 cells; assay type: cell-based; settings: Cu-free form; Hela S3, 3 days incubation with compound
Experimental: The percentage growth inhibition was calculated using the equation: […] wherein A is the ultimate number of cells on the third day from the addition of a test sample, B is the ultimate number of cells in the control (without the addition of test sample), and C is the number of cells on the day of addition of the test sample.

ICR strain mice = assay: Pulmonary toxicity (pulmonary fibrosis) in mice, intraperitoneal injection; assay type: in vivo; settings: 5 mg/kg i.p. once a day for 10 days; for Grade of pulmonary fibrosis, % / Incidence of pulmonary fibrosis, % / Incidence: number of mice suffering from pulmonary fibrosis / Grade: total score of pulmonary fibrosis/total number of test animal: autopsy after 5 weeks; for Incidence: number of mice suffering from pulmonary fibrosis: affected/total mice; for Grade: total score of pulmonary fibrosis/total number of test animal: score 0-6 points; for Grade of pulmonary fibrosis, Ratio / Incidence of pulmonary fibrosis, Ratio: reference of the ratio not stated
Procedure, shortened: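 Male ICR mice, 15 weeks old, 9 per group, received 5 mg/kg intraperitoneally once daily for 10 days. They were autopsied after 5 weeks' observation for pulmonary fibrosis incidence and grade: 1, alveolar exudate/septal fibrosis-like change; 2, fibrosis in several areas; 4, scattered fibrosis; 6, fibrosis over >2/3 of area.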

[3] = tested on: Lymphocytic leukemia P-388; assay: In vivo antitumor activity, murine lymphocytic leukemia P-388; settings: BDF1-SLC mice, i.p. transplant, once daily for 9 days, 30 days observation; T/C more than 130 effective
Experimental: The following data with respect to the testing of a group of the presently claimed substances in vivo according to a standard test method involving murine lymphocytic leukemia P-388 is presented to lend further assurance as to the utility of the compounds as inhibitors of mammalian tumors.
Lymphocytic leukemia P-388 cells (1×10^5 /0.2 ml) were transplanted intraperitoneally into male BDF1 -SLC mice (5 mice/group). Each of the compounds of this invention was diluted with physiological saline to various concentrations. Each dilution was administered at a dose of 0.1 ml/10 g of body weight once daily for 9 days, starting on the day after the day of the transplantation. The mice of the control group were administered physiological saline.
The average number of days that the group receiving the compound of this invention survived was calculated. The figure obtained was divided by the average number of survival days for the control group, and was multiplied by 100 (T/C (%)).
T/C value more than 130 was considered to be effective.

[4] = tested on: CDF1 /SLC strain male mice; assay: Acute toxicity, LD50 on 10 consecutive days; assay type: in vivo; settings: subcutaneous, Behrens-Karber method
Experimental: LD50 was assayed by administering several representative compounds of this invention for 10 consecutive days.
CDF1 /SLC strain male mice (each 6 weeks old, 7 members per group) were subcutaneously administered with various compounds of this invention, the dose being different with each compound. LD50 (daily dose) was estimated from the mortality during the administration period by the Behrens-Karber method.

Hela S3 cells [5] = settings: background statement; cited from earlier work
ICR mice = assay: Pulmonary toxicity (pulmonary fibrosis) in mice, intratracheal instillation; assay type: in vivo; settings: 16 μg/50 μl/mouse intratracheally, sacrificed 4 weeks after instillation; for Grade: total score of pulmonary fibrosis/total number of samples: score 0-6 points

| SMILES | Antimicrobial potency of Cu--free compound, against Mycobacterium smegmatis ATCC 607 [1] | Antimicrobial potency of Cu--free compound, against Bacillus subtilis (Bacillus subtilis) | 50% growth inhibition concentration (ID50) of Cu--free compound against cultured Hela cell (Hela S3 cells [2]) | Grade of pulmonary fibrosis, % (ICR strain mice) | Incidence of pulmonary fibrosis, % (ICR strain mice) | Incidence: number of mice suffering from pulmonary fibrosis (ICR strain mice) | Grade: total score of pulmonary fibrosis/total number of test animal (ICR strain mice) | Grade of pulmonary fibrosis, Ratio (ICR strain mice) | Incidence of pulmonary fibrosis, Ratio (ICR strain mice) | Max. T/C on Mouse Lymphocytic Leukemia P 388 [3] | LD50 (daily dose) [4] | Growth inhibition of Hela Cell (in words) (Hela S3 cells [5]) | Grade of pulmonary fibrosis, % (ICR mice) | Incidence of pulmonary fibrosis, % (ICR mice) | Incidence: number of mice with pulmonary fibrosis/number of mice (ICR mice) | Grade: total score of pulmonary fibrosis/total number of samples (ICR mice) |
| --- | --- | --- | --- | --- | --- | --- | --- | --- | --- | --- | --- | --- | --- | --- | --- | --- |
| Cc1c(N)nc(C(CC(N)=O)NCC(N)C(N)=O)nc1C(=O)NC(C(=O)NC(C)C(O)C(C)C(=O)NC(C(=O)NCCc1nc(-c2nc(C(=O)NCCCN(C)CCCNCC3CCCCCCCCCC3)cs2)cs1)C(C)O)C(OC1OC(CO)C(O)C(O)C1OC1OC(CO)C(O)C(OC(N)=O)C1O)c1cnc[nH]1 (stereo not shown) [Compound No. 32, 3-{N--Methyl-N--[3'-(cycloundecanylmethylamino)propyl]amino}propylaminoBLM] | 28308 mcg potency per mg | 8146 mcg potency per mg | 0.58 µg/mL | 0% | 0% | 0/9 | 0/27 | 0.00 | 0.00 | 166% | 17.5 mg/kg/day |  |  |  |  |  |
| Cc1c(N)nc(C(CC(N)=O)NCC(N)C(N)=O)nc1C(=O)NC(C(=O)NC(C)C(O)C(C)C(=O)NC(C(=O)NCCc1nc(-c2nc(C(=O)NCCCN3CCN(CCCN(Cc4ccccc4)Cc4ccccc4)CC3)cs2)cs1)C(C)O)C(OC1OC(CO)C(O)C(O)C1OC1OC(CO)C(O)C(OC(N)=O)C1O)c1cnc[nH]1 (stereo not shown) [Compound No. 43] | 14420 mcg potency per mg | 1230 mcg potency per mg | 0.50 µg/mL | 0% | 0% | 0/9 | 0/27 | 0.00 | 0.00 | 182% | 12.5 mg/kg/day |  |  |  |  |  |
| Cc1c(N)nc(C(CC(N)=O)NCC(N)C(N)=O)nc1C(=O)NC(C(=O)NC(C)C(O)C(C)C(=O)NC(C(=O)NCCc1nc(-c2nc(C(=O)NCCCN(C)CCCN)cs2)cs1)C(C)O)C(OC1OC(CO)C(O)C(O)C1OC1OC(CO)C(O)C(OC(N)=O)C1O)c1cnc[nH]1 (stereo not shown) [APMP, 3-[N-(3-aminopropyl)-N-methylamino]propylaminobleomycin, reference compound] |  |  |  | 0% | 100% | 9/9 | 48/27 | 2.15 | 1.6 |  |  | strongly inhibits |  |  |  |  |
| CC[N+](CC)(CCCNC(=O)c1csc(-c2csc(CCNC(=O)C(NC(=O)C(C)C(O)C(C)NC(=O)C(NC(=O)c3nc(C(CC(N)=O)NCC(N)C(N)=O)nc(N)c3C)C(OC3OC(CO)C(O)C(O)C3OC3OC(CO)C(O)C(OC(N)=O)C3O)c3cnc[nH]3)C(C)O)n2)n1)CCCN(Cc1ccccc1)Cc1ccccc1 (stereo not shown) [Compound No. 37, 3-[N,N-diethyl-N-(3'-dibenzylamino)propyl]aminopropylaminobleomycin] | 10680 mcg potency per mg | 1047 mcg potency per mg | 0.70 µg/mL |  |  |  |  |  |  | 168% | 50.0 mg/kg/day |  |  |  |  |  |
| Cc1c(N)nc(C(CC(N)=O)NCC(N)C(N)=O)nc1C(=O)NC(C(=O)NC(C)C(O)C(C)C(=O)NC(C(=O)NCCc1nc(-c2nc(C(=O)NCCC[N+](C)(CCCN(Cc3ccccc3)Cc3ccccc3)Cc3ccccc3)cs2)cs1)C(C)O)C(OC1OC(CO)C(O)C(O)C1OC1OC(CO)C(O)C(OC(N)=O)C1O)c1cnc[nH]1 (stereo not shown) [compound 39, 3-{N--Methyl-N--benzyl-N--[3'-(dibenzylamino)propyl]amino}propylaminoBLM] | 7746 mcg potency per mg | 580 mcg potency per mg | 2.30 µg/mL | 0% | 0% | 0/9 | 0/27 | 0.00 | 0.00 | 163% |  |  | 15% | 22% | 2/9 | 4/27 |
| Cc1c(N)nc(C(CC(N)=O)NCC(N)C(N)=O)nc1C(=O)NC(C(=O)NC(C)C(O)C(C)C(=O)NC(C(=O)NCCc1nc(-c2nc(C(=O)NCCC[N+](C)(C)CCCN(Cc3ccccc3)Cc3ccccc3)cs2)cs1)C(C)O)C(OC1OC(CO)C(O)C(O)C1OC1OC(CO)C(O)C(OC(N)=O)C1O)c1cnc[nH]1 (stereo not shown) [compound 35, 3-{N,N--Dimethyl-N--[3'-(dibenzylamino)propyl]amino}propylaminoBLM] | 13784 mcg potency per mg | 1742 mcg potency per mg | 0.87 µg/mL | 0% | 0% | 0/9 | 0/27 | 0.00 | 0.00 | 153% |  |  | 8% | 25% | 2/8 | 2/24 |
| Cc1c(N)nc(C(CC(N)=O)NCC(N)C(N)=O)nc1C(=O)NC(C(=O)NC(C)C(O)C(C)C(=O)NC(C(=O)NCCc1nc(-c2nc(C(=O)NCCCN(C)CCCN(Cc3ccc(OCc4ccccc4)c(OCc4ccccc4)c3)Cc3ccc(OCc4ccccc4)c(OCc4ccccc4)c3)cs2)cs1)C(C)O)C(OC1OC(CO)C(O)C(O)C1OC1OC(CO)C(O)C(OC(N)=O)C1O)c1cnc[nH]1 (stereo not shown) [Compound No. 34, 3-{N--Methyl-N--[3'-(bis(m,p-dibenzyloxybenzyl)amino)propyl]amino}propylaminoBLM] | 164 mcg potency per mg | 49 mcg potency per mg | 0.38 µg/mL | 0% | 0% | 0/9 | 0/27 | 0.00 | 0.00 | 205% | 60.0 mg/kg/day |  |  |  |  |  |
